{"source": "patent US12678479B2", "about": "“Pharmaceutical compositions comprising teixobactin” (priority 2018, dated 2026)", "origin": "cited, not measured here", "test_system": "MRSA ATCC 33591", "details": "comparison value", "data": [{"compound": "CN[C@H](CC(C)C)C(=O)N[C@H]1C(=O)N[C@@H](CC(N)=O)C(=O)N[C@H]2C(=O)N[C@H]3C(=O)N[C@H](C(=O)N[C@H](C(=O)O)c4cc(O)cc(O)c4-c4cc3ccc4O)[C@H](O[C@H]3C[C@](C)(N)[C@@H](O)[C@H](C)O3)c3ccc(c(Cl)c3)Oc3cc2cc(c3O[C@@H]2O[C@H](CO)[C@@H](O)[C@H](O)[C@H]2O[C@H]2C[C@](C)(NCc3ccc(-c4ccc(Cl)cc4)cc3)[C@@H](O)[C@H](C)O2)Oc2ccc(cc2Cl)[C@H]1O", "note": "[Orbactiv, oritavancin]", "values": [{"measurement": "effective dose", "result": "4 to 5", "unit": "mg/kg"}]}]}
